Source: patent publication US4372948A, “Derivative of saccharide and physiologically active agent containing the same” (Kureha Kagaku Kogyo Kabushiki Kaisha, priority 1980, dated 1983)

What was measured:
carrageenin edema = experiment: Anti-Carrageenin edema activity; format: in vivo, rat; settings: 1000 mg/kg once; for inhibition in vivo at 1000 mg/kg: Rattus norvegicus, po, read-out: I.R. against carrageenin edema; for I.R. against carrageenin edema: oral, 1000 mg/kg
In short: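 Rats (10 per group) given compound orally once at 1000 mg/kg in distilled water, then 0.1 ml 1% carrageenin injected into right hind foot pad. Foot pad thickness measured at intervals; inhibition rate (%) = (1−T/C)×100 versus carrageenin-only animals.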

Sarcoma-180 = experiment: Anti-tumour activity against Sarcoma-180; format: in vivo, mouse (ICR-JCL); settings: 10 times every other day, tumour weight on 25th day; for inhibition in vivo at 500 mg/kg: Mus musculus, Sarcoma-180, po, 600 h, read-out: Antitumour activity, inhibiting rate (I.R.); for Antitumour activity, inhibiting rate (I.R.): oral, 500 mg/kg/time, 500 mg/kg
In short: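 ICR-JCL mice were given 1×10^6 Sarcoma-180 cells axillary; from 24 hours, compounds in saline were dosed orally at 500 mg/kg/time, 10 times every other day. Tumour nodes were weighed on day 25; inhibition rate = (1-T/C)×100(%) versus untreated tumour-bearing mice.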

[1] = test system: pseudo-escaping reaction to tail pressure; experiment: Analgetic activity against mechanical stimulation of pressure; format: in vivo, mouse (ICR female); settings: oral, 1000 mg/kg
cotton pellet granuloma = experiment: Anti-granuloma activity (cotton pellet); format: in vivo, rat; settings: 7 days; for inhibition in vivo at 1000 mg/kg/day: Rattus norvegicus, po, 192 h, read-out: I.R. against cotton pellet edema; for I.R. against cotton pellet edema: oral, 1000 mg/kg/day
In short: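 Rats (6/group) implanted dorsally with two 30±1 mg cotton pellets; compounds given orally in distilled water at 1000 mg/kg/day once daily for 7 days. Granuloma excised on day 8 and dry weight measured; value is % inhibition of granuloma proliferation.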

exudation = experiment: Anti-exudation activity (air pouch, croton oil); format: in vivo, rat; settings: 5 days; for inhibition in vivo at 1000 mg/kg/day: Rattus norvegicus, po, 144 h, read-out: I.R. against exudation; for I.R. against exudation: oral, 1000 mg/kg/day
In short: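 Rats, 6 per group, given subcutaneous dorsal air pouch injected with 0.5 ml sesame oil containing 1% croton oil. Compounds dosed orally in distilled water at 1000 mg/kg/day for five days; pouch exudate volume measured on day 6 and expressed as percent inhibition of exudation.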

blood pressure = experiment: Anti-hypertension activity (reduction of blood pressure); format: in vivo, rat (spontaneous hypertension); settings: oral, 300 mg/kg
In short: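 Spontaneously hypertensive rats dosed orally at 300 mg/kg in distilled water. Blood pressure measured at 3 and 6 h. Activity taken as change from the value just before dosing.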

beta-lipoprotein = experiment: Anti-hyperlipemia activity, beta-lipoprotein in blood; format: in vivo, rabbit (Japanese white male); settings: oral, 300 mg/kg once
In short: (§1)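 Male Japanese white rabbits fed 1% cholesterol diet for 3 months received compound once orally at 300 mg/kg in water. Ear-vein blood: cholesterol by enzymatic method, beta-lipoprotein by colorimetry; values are change from predose at 3 or 6 h.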

[2] = test system: pyrexia (Saccharomyces cerevisiae); experiment: Anti-pyrexia activity (yeast-induced); format: in vivo; settings: Rattus norvegicus, oral, read-out: Rate of inhibiting pyrexia (I.R.)
In short: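 Rats (n=6/group) received subcutaneous 20% Saccharomyces cerevisiae suspension, fasted 10 h, then dosed orally with 1000 mg/kg compound in distilled water. Rectal temperature was tracked at set intervals and the lowest value taken; inhibition rate computed against non-yeast and yeast-only control temperatures.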

total cholesterol = experiment: Anti-hyperlipemia activity, total cholesterol in blood; format: in vivo, rabbit (Japanese white male); settings: oral, 300 mg/kg once; for Reduction of cholesterol level after 3 hrs.: negative = raising
In short: as §1

in vivo = settings: mouse, in vivo, po, mice, 7 days observation, read-out: LD50, acute oral toxicity
acetic acid writhing = experiment: Analgetic activity against chemical stimulation of acetic acid (writhing); format: in vivo, mouse (ICR female); settings: 30 min before 0.6% acetic acid; for inhibition in vivo at 1000 mg/kg: Mus musculus, po, read-out: I.R. of writhing; for I.R. of writhing: oral, 1000 mg/kg
Excerpt: Rate of inhibition (I.R.) (%)=(1-T/C)×100
T represents the average number of writhing of the group of mice administered with the present compound and injected with acetic acid, and C represents the average number of writhing of the group of mice only injected with acetic acid (control).

level of blood sugar = experiment: Anti-hyperglycemia activity (reduction of blood sugar level); format: in vivo, rat (Wistar, streptozotocin); settings: oral, 300 mg/kg
In short: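 Streptozotocin-diabetic Wistar rats (60 mg/kg i.p., relapsed hyperglycemia after insulin) given compounds orally at 300 mg/kg in distilled water. Blood sugar measured in samples taken 3 and 6 h post-dose.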

ICR-JCL mice = experiment: in vivo; settings: 7 days observation, 10080 min
[3] = test system: Bacillus subtilis strain H17; experiment: Mutagenicity, Rec-Assay, recombination repair retaining strain; settings: 10 microgram/disk
Description: (§2) Then, a solution or suspension of each of the present compounds was absorbed on a round sheet of paper (disk) of 8 mm in diameter in an amount of 0.04 ml and the disk was placed on the culture plate so as to cover the starting points of the streaks of the micro-organism's culture.

[4] = test system: Bacillus subtilis strain M45; experiment: Mutagenicity, Rec-Assay, recombination repair deficient strain; settings: 10 microgram/disk
Description: as §2

SMILES	inhibition in vivo at 1000 mg/kg (carrageenin edema)	inhibition in vivo at 500 mg/kg (Sarcoma-180)	Pseudo-escapting reaction pressure [1]	Pseudo-escapting reaction time [1]	inhibition in vivo at 1000 mg/kg/day (cotton pellet granuloma)	inhibition in vivo at 1000 mg/kg/day (exudation)	Reduced level of blood pressure after 3 hrs. (blood pressure)	Reduced level of blood pressure after 6 hrs. (blood pressure)	Reduction of beta-lipoprotein level after 3 hrs. (beta-lipoprotein)	Reduction of beta-lipoprotein level after 6 hrs. (beta-lipoprotein)	inhibition in vivo at 1000 mg/kg [2]	Reduction of cholesterol level after 3 hrs. (total cholesterol)	Reduction of cholesterol level after 6 hrs. (total cholesterol)	LD50 at 168 h (in vivo)	inhibition in vivo at 1000 mg/kg (acetic acid writhing)	Reduced level of blood sugar after 3 hrs. (level of blood sugar)	Reduced level of blood sugar after 6 hrs. (level of blood sugar)	other results
C[C@@H]1OC(Nc2cccc(C(=O)OCC3CCCCC3)c2)[C@@H](O)[C@H](O)[C@@H]1O (stereo partly drawn) [Compound 22, hexahydrobenzyl m-aminobenzoate-N-L-fucoside]	24.6%	35%	75 mmHg	37 s	15.7%	7.7%	15 mm Hg	21 mm Hg	125 mg/dL	133 mg/dL	29%	6 mg/dL	38 mg/dL	10100 mg/kg	19%	133 mg/dL	150 mg/dL	
O=C(OCC1CCCCC1)c1ccc(NC2OC[C@@H](O)[C@@H](O)[C@H]2O)cc1 (stereo partly drawn) [Compound 23, hexahydrobenzyl p-aminobenzoate-N-D-riboside]	4.9%	47%	80 mmHg	39 s	7.3%	22.5%	21 mm Hg	22 mm Hg	141 mg/dL	143 mg/dL	15%	-1 mg/dL	40 mg/dL	12600 mg/kg	23%	120 mg/dL	126 mg/dL	
O=C(OCC1CCCCC1)c1ccc(NC2O[C@H](CO)[C@@H](O)[C@H](O)[C@H]2O)cc1 (stereo partly drawn) [Compound 24, hexahydrobenzyl p-aminobenzoate-N-D-glucoside]	10.6%	40%	85 mmHg	42 s	16.9%	8.7%	19 mm Hg	21 mm Hg	95 mg/dL	111 mg/dL	48%	2 mg/dL	32 mg/dL	12100 mg/kg	41%	101 mg/dL	145 mg/dL	
C[C@@H]1OC(Nc2ccc(C(=O)OCC3CCCCC3)cc2)[C@H](O)[C@H](O)[C@H]1O (stereo partly drawn) [Compound 25, hexahydrobenzyl p-aminobenzoate-N-L-rhamnoside]	18.1%	50%	93 mmHg	44 s	6.5%	22.3%	16 mm Hg	18 mm Hg	95 mg/dL	106 mg/dL	54%	-3 mg/dL	44 mg/dL	9400 mg/kg	50%	88 mg/dL	127 mg/dL	
COC(=O)Cc1ccc(NC2O[C@@H](C)[C@H](O)[C@@H](O)[C@H]2O)cc1 (stereo partly drawn) [Compound 26, methyl p-aminophenylacetate-N-L-rhamnoside]	5.3%	45%	92 mmHg	41 s	24.1%	17.7%	20 mm Hg	23 mm Hg	123 mg/dL	133 mg/dL	60%	-3 mg/dL	51 mg/dL	11200 mg/kg	34%	90 mg/dL	136 mg/dL	
C[C@@H]1OC(Nc2ccc(CC(=O)O)cc2)[C@H](O)[C@H](O)[C@H]1O (stereo partly drawn) [Compound 28, sodium p-aminophenylacetate-N-L-rhamnoside]			87 mmHg	38 s			25 mm Hg	19 mm Hg								92 mg/dL	77 mg/dL	I.R. against carrageenin edema (carrageenin edema): 8.3%; Antitumour activity, inhibiting rate (I.R.) (Sarcoma-180): 45%; I.R. against cotton pellet edema (cotton pellet granuloma): 20.6%; I.R. against exudation (exudation): 6.1%; Reduction of beta-lipoprotein level after 3 hrs. (beta-lipoprotein; 300 mg/kg): 101 mg/dL; Reduction of beta-lipoprotein level after 6 hrs. (beta-lipoprotein; 300 mg/kg): 100 mg/dL; Reduction of cholesterol level after 3 hrs. (total cholesterol; 300 mg/kg): 5 mg/dL; Reduction of cholesterol level after 6 hrs. (total cholesterol; 300 mg/kg): 25 mg/dL; LD50, acute oral toxicity (ICR-JCL mice): 11100 mg/kg; I.R. of writhing (acetic acid writhing): 25%
C[C@@H]1OC(Nc2ccc(CC(=O)O)cc2)[C@H](O)[C@H](O)[C@H]1O (stereo partly drawn) [Compound 29, potassium p-aminophenylacetate-N-L-rhamnoside]			84 mmHg	41 s			21 mm Hg	17 mm Hg								88 mg/dL	71 mg/dL	I.R. against carrageenin edema (carrageenin edema): 9.3%; Antitumour activity, inhibiting rate (I.R.) (Sarcoma-180): 38%; I.R. against cotton pellet edema (cotton pellet granuloma): 15.9%; I.R. against exudation (exudation): 5.8%; Reduction of beta-lipoprotein level after 3 hrs. (beta-lipoprotein; 300 mg/kg): 95 mg/dL; Reduction of beta-lipoprotein level after 6 hrs. (beta-lipoprotein; 300 mg/kg): 121 mg/dL; Reduction of cholesterol level after 3 hrs. (total cholesterol; 300 mg/kg): 3 mg/dL; Reduction of cholesterol level after 6 hrs. (total cholesterol; 300 mg/kg): 40 mg/dL; LD50, acute oral toxicity (ICR-JCL mice): 10000 mg/kg; I.R. of writhing (acetic acid writhing): 26%
NC[C@H]1O[C@H](O[C@H]2[C@H](O)[C@@H](O[C@H]3O[C@H](CO)[C@@H](O)[C@H](N)[C@H]3O)[C@H](N)C[C@@H]2N)[C@H](O)[C@@H](O)[C@@H]1O [Kanamycin]																		Length of growth inhibition H17 [3]: 3 mm; Length of growth inhibition M45 [4]: 6 mm; Difference of growth inhibition (M45, H17) ([4]; M45 minus H17): 3 mm
